Source: patent US10758631B2, “Solid cyanine dyes” (LI-COR, Inc., priority 2017, dated 2020)

Assay: Mouse urine: fluorescence of extracted urine after injection
Assay type: in vivo
Conditions: mice, urine extracted with acetonitrile:methanol mix, imaged on Odyssey CLx imager
From the text: The urine is extracted with an acetonitrile:methanol mix and imaged on an Odyssey CLx imager (LI-COR Biosciences).

fluorescent signal in urine: No fluorescent signal
SMILES: CC1(C)C(/C=C/C=C/C=C/C=C2\N(CCCCS(=O)(=O)O)c3ccc4ccccc4c3C2(C)C)=[N+](CCCCS(=O)(=O)[O-])c2ccc3ccccc3c21 [ICG, indocyanine green]
